In ChEMBL document CHEMBL4308841, “Synthesis, in vitro antiproliferative activity, and kinase inhibitory effects of pyrazole-containing diarylureas and diarylamides” (Eur J Med Chem, 2018):

What was measured:
NCI-H322M = assay: Growth inhibition of human NCI-H322M cells incubated for 48 hrs by sulforhodamine B assay; type: functional, cell-based
BT-549 = assay: Growth inhibition of human BT549 cells assessed as cell growth at 0.1 uM incubated for 48 hrs by sulforhodamine B assay relative to control; type: functional; conditions: BT-549, 48 h, read-out: Activity
HL-60(TB) [1] = assay: Growth inhibition of human HL-60(TB) cells assessed as cell growth at 100 uM incubated for 48 hrs by sulforhodamine B assay relative to control; type: functional; conditions: HL-60, 48 h, read-out: Activity
PC-3 = assay: Growth inhibition of human PC3 cells assessed as cell growth at 0.01 uM incubated for 48 hrs by sulforhodamine B assay relative to control; type: functional; conditions: PC-3, 48 h, read-out: Activity
SK-OV-3 = assay: Growth inhibition of human SKOV3 cells assessed as cell growth at 1 uM incubated for 48 hrs by sulforhodamine B assay relative to control; type: functional; conditions: SK-OV-3, 48 h, read-out: Activity
SK-MEL-28 = assay: Growth inhibition of human SK-MEL-28 cells assessed as cell growth at 0.01 uM incubated for 48 hrs by sulforhodamine B assay relative to control; type: functional; conditions: SK-MEL-28, 48 h, read-out: Activity
Malme-3M [2] = assay: Growth inhibition of human MALME-3M cells assessed as cell growth at 0.01 uM incubated for 48 hrs by sulforhodamine B assay relative to control; type: functional; conditions: read-out: Activity
SNB-19 = assay: Growth inhibition of human SNB19 cells incubated for 48 hrs by sulforhodamine B assay; type: functional, cell-based; conditions: SNB-19, 48 h
LOX IMVI = assay: Growth inhibition of human LOXIMVI cells assessed as cell growth at 100 uM incubated for 48 hrs by sulforhodamine B assay relative to control; type: functional; conditions: read-out: Activity
MDA-MB-435 = assay: Growth inhibition of human MDA-MB-435 cells assessed as cell growth at 0.1 uM incubated for 48 hrs by sulforhodamine B assay relative to control; type: functional; conditions: MDA-MB-435, 48 h, read-out: Activity
UACC-62 = assay: Growth inhibition of human UACC62 cells assessed as cell growth at 1 uM incubated for 48 hrs by sulforhodamine B assay relative to control; type: functional; conditions: UACC-62, 48 h, read-out: Activity
NCI-H522 = assay: Growth inhibition of human NCI-H522 cells assessed as cell growth at 0.1 uM incubated for 48 hrs by sulforhodamine B assay relative to control; type: functional; conditions: NCI-H522, 48 h, read-out: Activity
Malme-3M [3] = assay: Growth inhibition of human MALME-3M cells assessed as cell growth at 100 uM incubated for 48 hrs by sulforhodamine B assay relative to control; type: functional; conditions: read-out: Activity
MOLT-4 = assay: Growth inhibition of human MOLT4 cells assessed as cell growth at 100 uM incubated for 48 hrs by sulforhodamine B assay relative to control; type: functional; conditions: MOLT-4, 48 h, read-out: Activity
M14 = assay: Growth inhibition of human M14 cells incubated for 48 hrs by sulforhodamine B assay; type: functional, cell-based; conditions: M14, 48 h
T47D = assay: Growth inhibition of human T47D cells assessed as cell growth at 1 uM incubated for 48 hrs by sulforhodamine B assay relative to control; type: functional; conditions: read-out: Activity
MDA-MB-231 = assay: Growth inhibition of human MDA-MB-231 cells assessed as cell growth at 1 uM incubated for 48 hrs by sulforhodamine B assay relative to control; type: functional; conditions: MDA-MB-231, 48 h, read-out: Activity
RPMI-8226 [4] = assay: Growth inhibition of human RPMI8226 cells assessed as cell growth at 100 uM incubated for 48 hrs by sulforhodamine B assay relative to control; type: functional; conditions: RPMI-8226, 48 h, read-out: Activity
NCI-H23 = assay: Growth inhibition of human NCI-H23 cells incubated for 48 hrs by sulforhodamine B assay; type: functional, cell-based; conditions: NCI-H23, 48 h
SF-539 = assay: Growth inhibition of human SF539 cells assessed as cell growth at 0.1 uM incubated for 48 hrs by sulforhodamine B assay relative to control; type: functional; conditions: SF-539, 48 h, read-out: Activity
SK-MEL-2 = assay: Growth inhibition of human SK-MEL-2 cells assessed as cell growth at 0.01 uM incubated for 48 hrs by sulforhodamine B assay relative to control; type: functional; conditions: SK-MEL-2, 48 h, read-out: Activity
RPMI-8226 [5] = assay: Growth inhibition of human RPMI8226 cells incubated for 48 hrs by sulforhodamine B assay; type: functional, cell-based; conditions: RPMI-8226, 48 h
HL-60(TB) [6] = assay: Growth inhibition of human HL-60(TB) cells assessed as cell growth at 1 uM incubated for 48 hrs by sulforhodamine B assay relative to control; type: functional; conditions: HL-60, 48 h, read-out: Activity
U-251 = assay: Growth inhibition of human U251 cells assessed as cell growth at 0.1 uM incubated for 48 hrs by sulforhodamine B assay relative to control; type: functional; conditions: U-251, 48 h, read-out: Activity
KM12 = assay: Growth inhibition of human KM12 cells assessed as cell growth at 1 uM incubated for 48 hrs by sulforhodamine B assay relative to control; type: functional; conditions: KM12, 48 h, read-out: Activity
Hs-578T = assay: Growth inhibition of human Hs578T cells assessed as cell growth at 0.01 uM incubated for 48 hrs by sulforhodamine B assay relative to control; type: functional; conditions: read-out: Activity
K562 = assay: Growth inhibition of human K562 cells assessed as cell growth at 1 uM incubated for 48 hrs by sulforhodamine B assay relative to control; type: functional; conditions: K562, 48 h, read-out: Activity
NCI/ADR-RES = assay: Growth inhibition of human NCI/ADR-RES cells incubated for 48 hrs by sulforhodamine B assay; type: functional, cell-based
SN12C = assay: Growth inhibition of human SN12C cells assessed as cell growth at 1 uM incubated for 48 hrs by sulforhodamine B assay relative to control; type: functional; conditions: read-out: Activity
[7] = read-out: LC50 (the source's name)
[8] = read-out: pLC50 (the source's name) (converted)

For `COc1cc(Cl)cc(-c2nn(-c3cccc(NC(=O)Nc4ccc(Cl)c(Cl)c4)c3)cc2-c2ccncc2)c1`, the GI50 (NCI-H322M; read-out: GI50) was 3.26 µM, the CC50 (NCI-H322M; [7]) was over 100 µM and the TGI (NCI-H322M; read-out: TGI) was over 100 µM. The GI50 (NCI-H322M; read-out: pGI50 (converted)) was 3.31 µM, the CC50 (NCI-H322M; [8]) was over 100 µM and the TGI (NCI-H322M; read-out: pTGI (converted)) was over 100 µM. For the same compound, the growth at 0.1 µM (BT-549) was 98%, the growth at 100 µM (HL-60(TB) [1]) was -30% and the growth at 0.01 µM (PC-3) was 96%. The growth at 1 µM (SK-OV-3) was 100%, the growth at 0.01 µM (SK-MEL-28) was 101% and the growth at 0.01 µM (Malme-3M [2]) was 92%. The GI50 (SNB-19; read-out: GI50) was 3.51 µM, the CC50 (SNB-19; [7]) was over 100 µM and the TGI (SNB-19; read-out: TGI) was over 100 µM. The GI50 (SNB-19; read-out: pGI50 (converted)) was 3.55 µM, the CC50 (SNB-19; [8]) was over 100 µM and the TGI (SNB-19; read-out: pTGI (converted)) was over 100 µM. For the same compound, the growth at 100 µM (LOX IMVI) was -30%, the growth at 0.1 µM (MDA-MB-435) was 99% and the growth at 1 µM (UACC-62) was 75%. It also gave a growth at 0.1 µM (NCI-H522) of 53%, a growth at 100 µM (Malme-3M [3]) of -24% and a growth at 100 µM (MOLT-4) of -7%. It also gave a GI50 (M14; read-out: GI50) of 2.52 µM, a CC50 (M14; [7]) of over 100 µM and a TGI (M14; read-out: TGI) of 10 µM. The GI50 (M14; read-out: pGI50 (converted)) was 3.16 µM, the CC50 (M14; [8]) was over 100 µM and the TGI (M14; read-out: pTGI (converted)) was 11 µM. For the same compound, the growth at 1 µM (T47D) was 87%, the growth at 1 µM (MDA-MB-231) was 85% and the growth at 100 µM (RPMI-8226 [4]) was -34%. It also gave an LC50 (NCI-H23; read-out: LC50) of over 100 µM, a GI50 (NCI-H23; read-out: pGI50 (converted)) of 2.63 µM and an LC50 (NCI-H23; read-out: pLC50 (converted)) of over 100 µM. It also gave a TGI (NCI-H23; read-out: pTGI (converted)) of 9.12 µM, a growth at 0.1 µM (SF-539) of 92% and a growth at 0.01 µM (SK-MEL-2) of 96%. The IC50 (RPMI-8226 [5]) was 0.65 µM, the GI50 (RPMI-8226 [5]; read-out: GI50) was 0.652 µM and the CC50 (RPMI-8226 [5]; [7]) was over 100 µM. For the same compound, the TGI (RPMI-8226 [5]; read-out: TGI) was 33.7 µM, the CC50 (RPMI-8226 [5]; [8]) was over 100 µM and the growth at 1 µM (HL-60(TB) [6]) was 91%. It also gave a growth at 0.1 µM (U-251) of 92%, a growth at 1 µM (KM12) of 72% and a growth at 0.01 µM (Hs-578T) of 93%. For the same compound, the growth at 1 µM (K562) was 67%, the GI50 (NCI/ADR-RES; read-out: GI50) was 2.34 µM and the CC50 (NCI/ADR-RES; [7]) was over 100 µM. For the same compound, the TGI (NCI/ADR-RES; read-out: TGI) was 24.9 µM, the GI50 (NCI/ADR-RES; read-out: pGI50 (converted)) was 2.34 µM and the CC50 (NCI/ADR-RES; [8]) was over 100 µM. The TGI (NCI/ADR-RES; read-out: pTGI (converted)) was 25.1 µM and the growth at 1 µM (SN12C) was 87%.
